Experimental data as given in patent US12365710B2, “HMGB1 protein derivatives for the removal of biofilms” (RESEARCH INSTITUTE AT NATIONWIDE CHILDREN'S HOSPITAL, priority 2018, dated 2025).

B1: B-linker Box: HMGB1 B Box with N- and C-terminal linker (80-179; 80 to 176 in b258), 97 amino acid (protein, UniProt P09429 80-179, looked up, fragment)
chain: PPKGETKKKFKDPNAPKRPPSAFFLFCSEYRPKIKGEHPGLSIGDVAKKLGEMWNNTAADDKQPYEKKAAKLKEKYEKDIAAYRAKGKPDAAKKGVVKAE

Experiments:
UPEC biofilm = test: in vitro disruption of established biofilms, CLSM and COMSTAT; type: cell-based, Uropathogenic E. coli; conditions: for disruption of established UPEC biofilms: added at 24 h, 16 h exposure, 200 nM unless stated
Experimental: FIGS. 5A-5E: Anti-biofilm effect of HMGB1 variants on high priority bacterial pathogens. Indicated HMGB1 variants or antibodies against DNABII proteins (α-1HFEc 1gG, 1 μM) were added at 24 h to the respective preformed bacterial biofilms, in vitro. After 16 h of Incubation, biofilms were stained with LIVE/DEAD®, then visualized via confocal laser scanning microscopy. Images were analyzed by COMSTAT to calculate average thickness and comparison to control was plotted. (FIG. 5A) Full-length HMGB1 isoforms (200 nM unless otherwise indicated) added to UPEC, B. cenocepacia, NTHI, or ESKAPE pathogens. 800 nM rHMGB1 and 200 nM mHMGB1 were added for S. aureus (ESKAPE). 800 nM rHMGB1, 800 nM mHMGB1, or 3.3 μM of α-1HFEc 1gG were added for E. faecium (ESKAPE) and were incubated for 1 h as opposed to 16 h to avoid potential degradation by E. faecium proteases. (FIG. 5B) Representative images of UPEC biofilms incubated with increasing concentrations of rHMGB1. (FIG. 5C) Individual domains of HMGB1 (200 nM) were tested for anti-biofilm activity as above (dotted line indicates control values). Bars represent the SEM. Statistical significance compared to control was assessed with unpaired t-tests, *P<0.05. […] (FIGS. 5D-5E) HMGB1 and variants disrupt preformed Klebsiella pneumoniae biofilms. rHMGB1, HMGB1 C45S (mHMGB1), bovine HMGB1 (bHMGB1), B box, B Box C106S (mB Box), A Box, and A+B Box were added (200 nM) at 24 h to preformed K. pneumoniae biofilms. After 16 h of incubation, biofilms were stained with LIVE/DEAD®, then visualized via confocal laser scanning microscopy. Images were analyzed by COMSTAT to calculate average thickness and total biomass. Error bars represent the SEM. ***P<0.0001; ns=not significant.
HMGB1 disrupts pathogenic biofilms: To test the effect of HMGB1 on bacterial biofilms (FIG. 5), Applicant cloned (IMPACT®, NEB Ipswich, MA), expressed (in E. coli), and purified (heparin sepharose chromatography to >95% purity) tagless human recombinant HMGB1 (rHMGB1) and an engineered C45 S variant (mHMGB1) that mimics the reduced form of HMGB1. rHMGB1 readily forms an intramolecular disulfide bond between C23 and C45 that contributes to pro-inflammatory activity whereas mHMGB1 cannot. These HMGB1 isoforms were evaluated for ability to disrupt established biofilms (formed for 24 h prior to addition). After a 16 h exposure to a single dose of rHMGB1 (200 nM; ˜25-fold greater than typical sepsis serum concentration, but not able to directly induce sepsis), biofilms formed by a wide variety of high priority species were stained with LIVE/DEAD®, analyzed using confocal laser scanning microscopy (CLSM) and COMSTAT analysis and compared to control biofilms. […] Preliminary analysis of PTMs by LC-MS/MS analysis (MS Bioworks, LLC Ann Arbor, MI) indicated minimal modification of both rHMGB1 and nHMGB1 (<20% of the observed peptides had any given PTM, FIG. 1C). […] Thus, while there are intrinsic differences in sensitivity among pathogens, the biofilms formed by all of the tested high priority pathogens were susceptible to a single dose of these non-antimicrobial compounds.
HMGB1 domain structure and anti-biofilm activity: Applicant then produced recombinant HMGB1 truncation variants, of 1) the A Box, a self-contained DNA-binding domain (residues 1-89); 2) an A-B Boxes construct (lacks the C tail; residues 1-185); and 3) the B Box (residues 80 to 176, FIGS. 1A and 1C). […] Since only the B Box can modulate DNA bending, without being bound by theory, it was hypothesized that HMGB1 disrupts biofilms at least in part via DNA-binding/bending. As the B Box is reported to contain pro-inflammatory activity, mediated primarily through interactions with TLR4-MD2 that are dependent on residue C106, Applicant created a modified B Box variant (mB Box) with a C106S mutation (FIGS. 1A and 1C).

E. faecium biofilm = test: as above; type: cell-based; conditions: 800 nM rHMGB1, incubated 1 h (FIG. 5A)
Experimental: (§1) FIGS. 5A-5E: Anti-biofilm effect of HMGB1 variants on high priority bacterial pathogens. Indicated HMGB1 variants or antibodies against DNABII proteins (α-1HFEc 1gG, 1 μM) were added at 24 h to the respective preformed bacterial biofilms, in vitro. After 16 h of Incubation, biofilms were stained with LIVE/DEAD®, then visualized via confocal laser scanning microscopy. Images were analyzed by COMSTAT to calculate average thickness and comparison to control was plotted. (FIG. 5A) Full-length HMGB1 isoforms (200 nM unless otherwise indicated) added to UPEC, B. cenocepacia, NTHI, or ESKAPE pathogens. 800 nM rHMGB1 and 200 nM mHMGB1 were added for S. aureus (ESKAPE). […] Statistical significance compared to control was assessed with unpaired t-tests, *P<0.05. […] Images were analyzed by COMSTAT to calculate average thickness and total biomass. […]
(§2) HMGB1 disrupts pathogenic biofilms: To test the effect of HMGB1 on bacterial biofilms (FIG. 5), Applicant cloned (IMPACT®, NEB Ipswich, MA), expressed (in E. coli), and purified (heparin sepharose chromatography to >95% purity) tagless human recombinant HMGB1 (rHMGB1) and an engineered C45 S variant (mHMGB1) that mimics the reduced form of HMGB1. rHMGB1 readily forms an intramolecular disulfide bond between C23 and C45 that contributes to pro-inflammatory activity whereas mHMGB1 cannot. […]

S. aureus biofilm = test: as above; type: cell-based; conditions: 800 nM rHMGB1 used (FIG. 5A)
Experimental: as §1, §2

[1] = system: established biofilms formed by high priority human pathogens; test: in vitro disruption of established biofilms of high priority pathogens (panel); type: cell-based, UPEC, B. cenocepacia, NTHI, ESKAPE pathogens; conditions: single dose 200 nM, biofilms formed 24 h, 16 h exposure
Experimental: as §1, §2

B. cenocepacia biofilm = type: cell-based, Burkholderia cenocepacia; conditions: 200 nM added at 24 h, 16 h exposure
Experimental: Indicated HMGB1 variants or antibodies against DNABII proteins (α-1HFEc 1gG, 1 μM) were added at 24 h to the respective preformed bacterial biofilms, in vitro. After 16 h of Incubation, biofilms were stained with LIVE/DEAD®, then visualized via confocal laser scanning microscopy. Images were analyzed by COMSTAT to calculate average thickness and comparison to control was plotted. (FIG. 5A) Full-length HMGB1 isoforms (200 nM unless otherwise indicated) added to UPEC, B. cenocepacia, NTHI, or ESKAPE pathogens. 800 nM rHMGB1 and 200 nM mHMGB1 were added for S. aureus (ESKAPE). 800 nM rHMGB1, 800 nM mHMGB1, or 3.3 μM of α-1HFEc 1gG were added for E. faecium (ESKAPE) and were incubated for 1 h as opposed to 16 h to avoid potential degradation by E. faecium proteases. […] (FIG. 5C) Individual domains of HMGB1 (200 nM) were tested for anti-biofilm activity as above (dotted line indicates control values). Bars represent the SEM. Statistical significance compared to control was assessed with unpaired t-tests, *P<0.05. […] After 16 h of incubation, biofilms were stained with LIVE/DEAD®, then visualized via confocal laser scanning microscopy. Images were analyzed by COMSTAT to calculate average thickness and total biomass. Error bars represent the SEM. ***P<0.0001; ns=not significant.

Molecule	disruption of established UPEC biofilms (UPEC biofilm)	average thickness of UPEC biofilm (UPEC biofilm; progressively higher concentrations of rHMGB1, up to 400 nM, monolayer)	concentration needed to disrupt E. faecium biofilm (E. faecium biofilm)	concentration needed to disrupt S. aureus biofilm (S. aureus biofilm)	disruption of established biofilms (average thickness and biomass) of high priority species [1]	disruption of established biofilms (average thickness and biomass) of high priority species ([1]; listed as Full length recombinant HMGB1)	disruption of established Bc biofilms (B. cenocepacia biofilm)
rHMGB1: tagless human recombinant full length HMGB1 (1-215) expressed in E. coli	disrupted a UPEC biofilm in a dose-dependent manner	~1 μm	required a higher (albeit non-bactericidal) concentration	required a higher (albeit non-bactericidal) concentration	significant reduction	significantly disrupt	–
B1	retained full anti-biofilm activity	–	–	–	–	–	retained full anti-biofilm activity
